# “Also recorded” adds a separate entry of the source. Where two headings read alike, the source gives them in different places.
# Tested on: lymphocyte cells
# Experiment: 4CmC-induced adenosine in swine lymphocyte cells, nucleosides assay (Example 4)
# Type: cell-based
# Conditions: for EC50: Sus scrofa, Lymphocyte; for peak ADO level upon 4CmC stimulation, mean±SEM: near 1 mM 4CmC
# Method: Isolation of lymphocytes from whole blood: Lymphocyte cells were isolated from whole blood by Ficoll-Hypaque density gradient centrifugation technique (see Boyum A., Scand. J. Clip. Lab. 97:77-89 (1968)). Isolated lymphocyte cells were dispensed into 3-volume normal Hanks' balanced salt solution (HBSS) and centrifuged (10 minutes at 1000 RPM). The pellet was re-suspended in HBSS to lyse contaminating erythrocytes and spun. The later step was repeated one more time. To maintain simplicity of the protocol for possible MH diagnostic purposes no further purification was attempted. Lymphocyte cells were then cultured in RPMI-1640 media supplemented with 10% fetal bovine serum, […] penicillin and 2 mM glutamine. Cell cultures were incubated at 37° C. in a humidified chamber with 5% CO2. All experiments were completed within 4 days after isolation of lymphocyte cells from whole blood samples.
# Nucleosides Assay Protocol: Briefly, lymphocyte cells (1−2×10^6 cells/test) were suspended in HBSS with or without Ca^2+/Mg^2+ (as indicated for each experiment) plus 0.1% bovine serum albumin (BSA). Experiments were carried out in the presence of the adenosine deaminase inhibitor erythro-9-(2-hydroxy-3-nonyl) adenine-HCl ([…]) to prevent deamination of adenosine to inosine (Lorbar et al., J Mol Cell Cardiol 31: 401-12 (1999)) and incubated at 37° C. for 10 minutes followed by treatment with different 4CmC concentrations (0.05-10 mM). Further incubation at 37° C. for an additional 45 minutes was also carried out. Final volumes of the test tubes were adjusted to 0.2 ml using HBSS buffer. Termination of the cell activity and purification of samples was accomplished by addition of 0.1 ml 12% perchloric acid followed by centrifugation at 5000 RPM for 10 minutes. Aliquots of the supernatant (50 μl) were assayed for adenosine and inosine content using HPLC.
# HPLC Conditions: The HPLC system consisted of a Waters Symmetry C18 column (4.6×250 mm) and mobile phase of 94% KH2PO4 (50 mM, pH 4.6) containing 1-heptanesulfonic acid (0.5 mM) and 6% acetonitrile. Under these conditions, retention times for inosine and adenosine were 4 and 7.3 min, respectively. Peak width of inosine and adenosine were 18 and 36 seconds, respectively. Eluting compounds were detected by their absorbance at 254 nm using a Waters photodiode array detector (model 996). Sample adenosine and inosine concentrations were obtained using a calibrated standard curve of concentrations vs. peak area.
# Statistics: Sample nucleosides concentrations were normalized to represent per 1 million cells and presented as means±SEM. The t-test was applied to test for differences between agonist-induced nucleosides in lymphocyte cells from MHS and normal swine. A P<0.05 considered to indicate statistical significance.
compound,measurement,setting,value
"Cc1cc(O)ccc1Cl [4CmC, 4-chloro-m-cresol]",4CmC-induced ADO in lymphocyte cells from MHS swine versus normal swine,,significantly greater; also recorded: significantly higher
same,"4CmC-induced ADO, mean±SEM","1 mM 4CmC, Ca2+/Mg2+-free HBSS, normal swine (n=6)",0.244 ± 0.026 µM
same,basal plus 4CmC-induced ADO range,"1 mM 4CmC, MHS swine cells",0.250 to 0.537 µM
same,"4CmC-induced ADO, mean±SEM","1 mM 4CmC, normal HBSS, normal swine (n=6)",0.326 ± 0.023 µM
same,increase in ADO formation in the presence of extracellular Ca2+,"1 mM 4CmC, normal swine",25.2±5.1%
same,basal plus 4CmC-induced ADO range,"1 mM 4CmC, normal swine cells",0.145 to 0.209 µM
same,"4CmC-induced ADO, mean±SEM","2 mM 4CmC, absence of extracellular Ca2+, normal swine",0.167 ± 0.018 µM
same,4CmC-induced adenosine relative to basal adenosine level,"2 mM 4CmC, no FCCP, Ca2+/Mg2+ free HBSS, normal swine (n=5)",5.8 fold
same,increase in 4CmC-induced ADO formation in the presence of extracellular Ca2+,"2 mM 4CmC, normal swine",41±3.3%
same,"4CmC-induced ADO, mean±SEM","2 mM 4CmC, presence of extracellular Ca2+, normal swine",0.284 ± 0.023 µM
same,increase in sensitivity to 4CmC in the MHS cell population,MHS vs normal swine cells,~60%
same,EC50,"read-out: estimated EC50 of 4CmC for ADO formation, MHS swine cells",550 ± 60 µM
same,EC50,"read-out: estimated EC50 of 4CmC for ADO formation, normal swine cells",340 ± 40 µM
same,"peak ADO level upon 4CmC stimulation, mean±SEM","normal HBSS, MHS swine cells (n=7)",0.389 ± 0.033 µM
same,"peak ADO level upon 4CmC stimulation, mean±SEM","normal HBSS, normal swine cells (n=7)",0.199 ± 0.005 µM
same,4CmC concentration at which ADO levels peaked,"swine lymphocytes, normal HBSS",~1 mM

# — patent US8846330B2, “Methods and kits for the diagnosis of RyR1-related diseases” (The Henry M. Jackson Foundation for the Advancement of …, priority 2008, dated 2014)
